In US20240122180A1, “FUNGICIDAL HALOMETHYL KETONES AND HYDRATES AND THEIR MIXTURES” (FMC Corporation, priority 2020, published 2024):

Experiments:
[1] = tested on: Puccinia recondita f. sp. tritici (the causal agent of wheat leaf rust); assay: Test B: preventive spray on wheat seedlings, disease rating (100 = 100% control; * 50 ppm, ** 10 ppm, *** 250 ppm); assay type: in vivo; settings: 100 = 100% disease control; for pest or weed control at 10 ppm: Puccinia recondita
How it was run: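 Wheat seedlings sprayed to run-off with compound in acetone/water (50/50) containing 250 ppm PEG400, inoculated next day with Puccinia recondita f. sp. tritici spores. Held 24 h saturated at 20° C, then 6 days at 20° C; disease control rated 0–100 relative to controls.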

[2] = tested on: Phakopsora pachyrhizi (the causal agent of Asian soybean rust); assay: Test A: preventive spray on soybean seedlings, visual disease rating (100 = 100% control; * 50 ppm, ** 10 ppm, *** 250 ppm); assay type: in vivo; settings: 100 = 100% disease control; for pest or weed control at 10 ppm: Phakopsora pachyrhizi
How it was run: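 Soybean seedlings sprayed to run-off with compound suspended in acetone/water with 250 ppm PEG400 surfactant, inoculated next day with P. pachyrhizi spores. Kept 24 h saturated at 22 °C, then 8 days at 22 °C before visual rating of disease control (0-100) relative to controls.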

[3] = 10 ppm test suspension, 0 = no control
[4] = 10 ppm test suspension, wheat seedlings
[5] = 10 ppm test suspension, soybean seedlings
[6] = 50 ppm test suspension, 0 = no control
[7] = 50 ppm test suspension, wheat seedlings
[8] = 50 ppm test suspension, soybean seedlings

Question: Which “Test B disease control rating” value [1, 3] does the source give for CCOC(=O)c1cnn(CCc2cccc(O/C=C(\OCC)C(F)(F)F)c2)c1 [compound 345] here?
Answer: 0%

Question: And the “Test A disease control rating” value [2, 3]?
Answer: 0%

Question: Which “Test B disease control rating” value [1, 4] does the source give for CCO/C(=C\Oc1ccc(CNC(=O)C(C)C)cc1)C(F)(F)F [compound 210] here?
Answer: 0%

Question: And the “Test A disease control rating” value [2, 5]?
Answer: 0%

Question: For CCOC(=O)C1=NOC(c2ccc(O/C=C(\OCC)C(F)(F)F)cc2)C1 (stereo not drawn) [compound 278], which “Test B disease control rating” value [1, 6] is on record?
Answer: 0%

Question: And the “Test A disease control rating” value [2, 6]?
Answer: 94%

Question: How did the “Test B disease control rating” value [1, 4] turn out when CCO/C(=C\Oc1ccc(C(=O)NC)cc1)C(F)(F)F [compound 105] was run?
Answer: 68%

Question: What about the “Test A disease control rating” value [2, 5] of the same molecule?
Answer: 0%

Question: CN(C)C(=O)C1=NOC(c2ccc(OCC(O)(O)C(F)(F)F)cc2)C1 (stereo not drawn) [compound 41] was tested. Which “Test B disease control rating” value [1, 4] did it give?
Answer: 23%

Question: And the “Test A disease control rating” value [2, 5]?
Answer: 92%

Question: With CCOC(=O)c1cnn(Cc2cc(C)cc(O/C=C(\OCC)C(F)(F)F)c2)c1 [compound 406] as the molecule, how does the “Test B disease control rating” value [1, 6] read?
Answer: 0%

Question: What about the “Test A disease control rating” value [2, 6] of the same molecule?
Answer: 0%

Question: What does the source list for CCO/C(=C\Oc1ccc(Cn2ncnc2C#N)cc1)C(F)(F)F [compound 81]?
Answer: Test B disease control rating [1, 4]: 0%; Test A disease control rating [2, 5]: 0%

Question: Which results are given for FC(F)(F)C1(COc2ccc(Cc3ccccc3)cc2)OCCO1 [compound 192]?
Answer: Test B disease control rating [1, 4]: 0%; Test A disease control rating [2, 5]: 0%

Question: For CCOC(=O)c1cnn(C(C)c2ccc(OCC3(C(F)(F)F)OCCO3)cc2)c1 (racemic) [compound 26], which “Test B disease control rating” value [1, 4] is on record?
Answer: 0%

Question: What about the “Test A disease control rating” value [2, 5] of the same molecule?
Answer: 99%

Question: How did the “Test B disease control rating” value [1, 6] turn out when CCNC(=O)N1CC(c2ccc(OCC3(C(F)(F)F)OCCO3)cc2)C1 [compound 411] was run?
Answer: 0%

Question: What about the “Test A disease control rating” value [2, 6] of the same molecule?
Answer: 87%

Question: Which “Test B disease control rating” value [1, 3] does the source give for CCO/C(=C\Oc1ccc(Cn2ccc(C(=O)OCCCCl)n2)cc1)C(F)(F)F [compound 362] here?
Answer: 0%

Question: And the “Test A disease control rating” value [2, 3]?
Answer: 100%

Question: What does the source list for CCO/C(=C\Oc1ccc(CNC(=O)C(C)OC)cc1)C(F)(F)F (stereo not drawn) [compound 114]?
Answer: Test B disease control rating [1, 7]: 0%; Test A disease control rating [2, 8]: 44%

Question: What does the source list for CCOC(=O)c1cnn(-c2cccc(O/C=C(\OCC)C(F)(F)F)c2)c1 [compound 317]?
Answer: Test B disease control rating [1, 6]: 0%; Test A disease control rating [2, 6]: 0%

Question: With CCOC(=O)c1cnn(COc2ccc(OCC(O)(O)C(F)(F)F)cc2)c1 [Compound 366, ethyl 1-[[4-(3,3,3-trifluoro-2,2-dihydroxypropoxy)phenoxy]methyl]-1H-pyrazole-4-carboxylate] as the molecule, how does the pest or weed control at 10 ppm [1, 3] read?
Answer: 55%

Question: What about the pest or weed control at 10 ppm [2, 3] of the same molecule?
Answer: 79%

Question: Which “Test B disease control rating” value [1, 4] does the source give for O=C(NCc1ccc(OCC2(C(F)(F)F)OCCO2)cc1)c1cccc(C(F)(F)F)c1 [compound 179] here?
Answer: 0%

Question: What about the “Test A disease control rating” value [2, 5] of the same molecule?
Answer: 0%

Question: Which results are given for O=C(OCC1OCCO1)c1cnn(Cc2ccc(OCC3(C(F)(F)F)OCCO3)cc2)c1 [compound 204]?
Answer: Test B disease control rating [1, 4]: 0%; Test A disease control rating [2, 5]: 100%

Question: CCOC(=O)c1cnn(Cc2ccc(OC(F)(F)C3(C(F)(F)F)OCCO3)cc2)c1 [compound 319] was tested. Which “Test B disease control rating” value [1, 6] did it give?
Answer: 41%

Question: What about the “Test A disease control rating” value [2, 6] of the same molecule?
Answer: 100%

Question: CCO/C(=C\Oc1cccc(Cn2cc(C(=O)OCCCOC)cn2)c1)C(F)(F)F [compound 351] was tested. Which “Test B disease control rating” value [1, 3] did it give?
Answer: 0%

Question: What about the “Test A disease control rating” value [2, 3] of the same molecule?
Answer: 100%

Question: Which “Test B disease control rating” value [1, 4] does the source give for COC(=O)NN=Cc1ccc(OCC(O)(O)C(F)(F)F)cc1 [compound 33] here?
Answer: 86%

Question: And the “Test A disease control rating” value [2, 5]?
Answer: 96%

Question: With CCOC(=O)c1cnn(Cc2cc(O/C=C(\OCC)C(F)(F)F)ccc2F)c1 [compound 302] as the molecule, how does the “Test B disease control rating” value [1, 6] read?
Answer: 0%

Question: What about the “Test A disease control rating” value [2, 6] of the same molecule?
Answer: 99%

Question: For COC(=O)c1cnn(Cc2ccc(OCC3(C(F)(F)F)OCCO3)cc2)c1 [compound 13], which “Test B disease control rating” value [1, 4] is on record?
Answer: 0%

Question: What about the “Test A disease control rating” value [2, 5] of the same molecule?
Answer: 99%

Question: With CCO/C(=C\Oc1ccc(C(C)=O)cc1)C(F)(F)F [compound 79] as the molecule, how does the “Test B disease control rating” value [1, 7] read?
Answer: 0%

Question: What about the “Test A disease control rating” value [2, 8] of the same molecule?
Answer: 0%

Question: What does the source list for CCO/C(=C\Oc1cccc(Cc2nc(C(=O)NCC(F)(F)F)cs2)c1)C(F)(F)F [compound 377]?
Answer: pest or weed control at 10 ppm [1, 3]: 0%; pest or weed control at 10 ppm [2, 3]: 44%

Question: With CCO/C(=C\Oc1ccc(CN2OCC(C)(C)C2=O)cc1)C(F)(F)F [compound 92] as the molecule, how does the “Test B disease control rating” value [1, 4] read?
Answer: 0%

Question: What about the “Test A disease control rating” value [2, 5] of the same molecule?
Answer: 0%
